The data set in a line: Equilibrium solubility in aqueous solutions containing different concentrations of Captisol. It is filed as physicochemical. Particulars: aqueous solution containing Captisol, 20 °C, thermodynamic from solid, free form equivalent. As for the experimental part: Captisol® improves the solubility of the compound of Formula I in free base form, HCl salt and tosylate salt. Solubility of the above compounds was determined by equilibrating the powder with aqueous solutions containing different concentration of Captisol® at ambient temperature (20° C.).
The solutions were prepared in accordance with methods known to one of skill in the art.

Counter-ions that a name gives are not always drawn. Like-named read-outs stand apart in the source and are kept apart here.

Consider `C[C@@H](OC[C@@]1(c2ccccc2)CC[C@]2(CCC(=O)N2)CN1)c1cc(C(F)(F)F)cc(C(F)(F)F)c1` [Compound I HCl salt], for which the solubility came out at 50 µg/mL (pH 5, aqueous buffer, Captisol 0 % w/v, pH 5 (NaOH adjusted), ambient temperature (20° C.), read-out: Solubility of Compound I HCl salt at pH 5 (pH adjusted by NaOH)); 3500 µg/mL (pH 5, aqueous with cosolvent or surfactant or cyclodextrin, Captisol 2 % w/v, pH 5 (NaOH adjusted), ambient temperature (20° C.), read-out: Solubility of Compound I HCl salt at pH 5 (pH adjusted by NaOH)); 4700 µg/mL (pH 5, aqueous with cosolvent or surfactant or cyclodextrin, Captisol 5 % w/v, pH 5 (NaOH adjusted), ambient temperature (20° C.), read-out: Solubility of Compound I HCl salt at pH 5 (pH adjusted by NaOH)); 10000 µg/mL (pH 5, aqueous with cosolvent or surfactant or cyclodextrin, Captisol 10 % w/v, pH 5 (NaOH adjusted), ambient temperature (20° C.), read-out: Solubility of Compound I HCl salt at pH 5 (pH adjusted by NaOH)).

Consider `C[C@@H](OC[C@@]1(c2ccccc2)CC[C@]2(CCC(=O)N2)CN1)c1cc(C(F)(F)F)cc(C(F)(F)F)c1` [Compound I Tosylate salt], for which the solubility (pH 5, aqueous buffer, Captisol 0 % w/v, pH 5 (NaOH adjusted), 20° C., read-out: Solubility of Compound I Tosylate salt at pH 5 (pH adjusted by NaOH)) amounted to 150 µg/mL; the solubility (pH 5, aqueous with cosolvent or surfactant or cyclodextrin, Captisol 10 % w/v, pH 5 (NaOH adjusted), 20° C., read-out: Solubility of Compound I Tosylate salt at pH 5 (pH adjusted by NaOH)) worked out at 940 µg/mL; the solubility (pH 5, aqueous with cosolvent or surfactant or cyclodextrin, Captisol 20 % w/v, pH 5 (NaOH adjusted), 20° C., read-out: Solubility of Compound I Tosylate salt at pH 5 (pH adjusted by NaOH)) came to 1800 µg/mL; the solubility (pH 5, aqueous with cosolvent or surfactant or cyclodextrin, Captisol 40 % w/v, pH 5 (NaOH adjusted), 20° C., read-out: Solubility of Compound I Tosylate salt at pH 5 (pH adjusted by NaOH)) was found to be 4100 µg/mL.

Take `C[C@@H](OC[C@@]1(c2ccccc2)CC[C@]2(CCC(=O)N2)CN1)c1cc(C(F)(F)F)cc(C(F)(F)F)c1` [Compound I free base]: the solubility reads like this: (pH 5.2, aqueous buffer, Captisol 0 % w/v, pH 5.2 citric acid buffered, 20° C., read-out: Solubility of Compound I free base at pH 5.2 (citric acid buffered)) 170 µg/mL; (pH 5.2, aqueous with cosolvent or surfactant or cyclodextrin, Captisol 2 % w/v, pH 5.2 citric acid buffered, 20° C., read-out: Solubility of Compound I free base at pH 5.2 (citric acid buffered)) 2200 µg/mL; (pH 5.2, aqueous with cosolvent or surfactant or cyclodextrin, Captisol 5 % w/v, pH 5.2 citric acid buffered, 20° C., read-out: Solubility of Compound I free base at pH 5.2 (citric acid buffered)) 4600 µg/mL; (pH 5.2, aqueous with cosolvent or surfactant or cyclodextrin, Captisol 10 % w/v, pH 5.2 citric acid buffered, 20° C., read-out: Solubility of Compound I free base at pH 5.2 (citric acid buffered)) 7200 µg/mL; (pH 5.2, aqueous with cosolvent or surfactant or cyclodextrin, Captisol 20 % w/v, pH 5.2 citric acid buffered, 20° C., read-out: Solubility of Compound I free base at pH 5.2 (citric acid buffered)) 12000 µg/mL; (pH 7.2, aqueous buffer, Captisol 0 % w/v, pH 7.2 phosphate buffered, 20° C., read-out: Solubility of Compound I free base at pH 7.2 (phosphate buffered)) 2 µg/mL. The solubility runs as follows: (pH 7.2, aqueous with cosolvent or surfactant or cyclodextrin, Captisol 2 % w/v, pH 7.2 phosphate buffered, 20° C., read-out: Solubility of Compound I free base at pH 7.2 (phosphate buffered)) 50 µg/mL; (pH 7.2, aqueous with cosolvent or surfactant or cyclodextrin, Captisol 5 % w/v, pH 7.2 phosphate buffered, 20° C., read-out: Solubility of Compound I free base at pH 7.2 (phosphate buffered)) 150 µg/mL; (pH 7.2, aqueous with cosolvent or surfactant or cyclodextrin, Captisol 10 % w/v, pH 7.2 phosphate buffered, 20° C., read-out: Solubility of Compound I free base at pH 7.2 (phosphate buffered)) 290 µg/mL; (pH 7.2, aqueous with cosolvent or surfactant or cyclodextrin, Captisol 20 % w/v, pH 7.2 phosphate buffered, 20° C., read-out: Solubility of Compound I free base at pH 7.2 (phosphate buffered)) 610 µg/mL.

As a reminder, the solubility is how much of the substance goes into solution per volume.

These data come from patent US20050153999A1, “Pharmaceutical compositions” (SCHERING CORPORATION, priority 2003, published 2005).
